In the CheMixHub ionic liquid set:

Assay: xn = mol fraction of the nth substance listed

CCCCCCCCCCCC[N+](C)(C)C.[Br-] + O
Details | electrical conductivity [S/m] | viscosity [mPa·s]
293.15 K, 100 kPa, x1 = 5.406e-05 | – | 0.982
293.15 K, 100 kPa, x1 = 0.0001081 | – | 0.984
293.15 K, 100 kPa, x1 = 0.0001622 | – | 0.985
293.15 K, 100 kPa, x1 = 0.0002162 | – | 0.987
293.15 K, 100 kPa, x1 = 0.0002702 | – | 0.989
293.15 K, 100 kPa, x1 = 0.0003242 | – | 0.991
293.15 K, 100 kPa, x1 = 0.0003783 | – | 0.993
293.15 K, 100 kPa, x1 = 0.0004323 | – | 0.995
293.15 K, 100 kPa, x1 = 0.0004863 | – | 0.999
293.15 K, 100 kPa, x1 = 0.0005403 | – | 1
293.15 K, 101 kPa, x1 = 5.406e-05 | – | 0.985
293.15 K, 101 kPa, x1 = 0.0001081 | – | 0.986
293.15 K, 101 kPa, x1 = 0.0001622 | – | 0.988
293.15 K, 101 kPa, x1 = 0.0002162 | – | 0.99
293.15 K, 101 kPa, x1 = 0.0002702 | – | 0.992
293.15 K, 101 kPa, x1 = 0.0003242 | – | 0.994
293.15 K, 101 kPa, x1 = 0.0003783 | – | 0.996
293.15 K, 101 kPa, x1 = 0.0004323 | – | 0.998
293.15 K, 101 kPa, x1 = 0.0004863 | – | 1.001
293.15 K, 101 kPa, x1 = 0.0005403 | – | 1.004
298 K, 101 kPa, x1 = 0.0001567 | 0.079 | –
298 K, 101 kPa, x1 = 0.0001676 | 0.084 | –
298 K, 101 kPa, x1 = 0.000182 | 0.09 | –
298 K, 101 kPa, x1 = 0.0001874 | 0.093 | –
298 K, 101 kPa, x1 = 0.0001946 | 0.096 | –
298 K, 101 kPa, x1 = 0.0002054 | 0.099 | –
298 K, 101 kPa, x1 = 0.0002144 | 0.105 | –
298 K, 101 kPa, x1 = 0.0002252 | 0.111 | –
298 K, 101 kPa, x1 = 0.000236 | 0.115 | –
298.15 K, 100 kPa, x1 = 5.406e-05 | – | 0.853
298.15 K, 100 kPa, x1 = 0.0001081 | – | 0.855
298.15 K, 100 kPa, x1 = 0.0001622 | – | 0.855
298.15 K, 100 kPa, x1 = 0.0002162 | – | 0.857
298.15 K, 100 kPa, x1 = 0.0002702 | – | 0.86
298.15 K, 100 kPa, x1 = 0.0003242 | – | 0.86
298.15 K, 100 kPa, x1 = 0.0003783 | – | 0.861
298.15 K, 100 kPa, x1 = 0.0004323 | – | 0.863
298.15 K, 100 kPa, x1 = 0.0004863 | – | 0.864
298.15 K, 100 kPa, x1 = 0.0005403 | – | 0.866
298.15 K, 101 kPa, x1 = 4.307e-05 | 0.02398 | –
298.15 K, 101 kPa, x1 = 5.406e-05 | – | 0.853
298.15 K, 101 kPa, x1 = 5.568e-05 | 0.0306 | –
298.15 K, 101 kPa, x1 = 6.865e-05 | 0.03743 | –
298.15 K, 101 kPa, x1 = 8.144e-05 | 0.04413 | –
298.15 K, 101 kPa, x1 = 9.46e-05 | 0.0508 | –
298.15 K, 101 kPa, x1 = 0.0001068 | 0.05714 | –
298.15 K, 101 kPa, x1 = 0.0001081 | – | 0.854
298.15 K, 101 kPa, x1 = 0.0001198 | 0.06364 | –
298.15 K, 101 kPa, x1 = 0.0001322 | 0.06995 | –
298.15 K, 101 kPa, x1 = 0.0001456 | 0.07656 | –
298.15 K, 101 kPa, x1 = 0.0001584 | 0.0829 | –
298.15 K, 101 kPa, x1 = 0.0001622 | – | 0.856
298.15 K, 101 kPa, x1 = 0.0001704 | 0.08876 | –
298.15 K, 101 kPa, x1 = 0.0001857 | 0.09628 | –
298.15 K, 101 kPa, x1 = 0.0002009 | 0.1036 | –
298.15 K, 101 kPa, x1 = 0.0002126 | 0.1093 | –
298.15 K, 101 kPa, x1 = 0.0002162 | – | 0.858
298.15 K, 101 kPa, x1 = 0.0002243 | 0.1151 | –
298.15 K, 101 kPa, x1 = 0.0002466 | 0.1259 | –
298.15 K, 101 kPa, x1 = 0.0002495 | 0.1271 | –
298.15 K, 101 kPa, x1 = 0.0002564 | 0.1305 | –
298.15 K, 101 kPa, x1 = 0.0002702 | – | 0.859
298.15 K, 101 kPa, x1 = 0.0002992 | 0.1437 | –
298.15 K, 101 kPa, x1 = 0.000323 | 0.1474 | –
298.15 K, 101 kPa, x1 = 0.0003242 | – | 0.861
298.15 K, 101 kPa, x1 = 0.0003333 | 0.1488 | –
298.15 K, 101 kPa, x1 = 0.0003783 | – | 0.862
298.15 K, 101 kPa, x1 = 0.0004323 | – | 0.864
298.15 K, 101 kPa, x1 = 0.0004863 | – | 0.861
298.15 K, 101 kPa, x1 = 0.0005403 | – | 0.867
303.15 K, 100 kPa, x1 = 5.406e-05 | – | 0.772
303.15 K, 100 kPa, x1 = 0.0001081 | – | 0.773
303.15 K, 100 kPa, x1 = 0.0001622 | – | 0.774
303.15 K, 100 kPa, x1 = 0.0002162 | – | 0.775
303.15 K, 100 kPa, x1 = 0.0002702 | – | 0.777
303.15 K, 100 kPa, x1 = 0.0003242 | – | 0.78
303.15 K, 100 kPa, x1 = 0.0003783 | – | 0.784
303.15 K, 100 kPa, x1 = 0.0004323 | – | 0.786
303.15 K, 100 kPa, x1 = 0.0004863 | – | 0.799
303.15 K, 100 kPa, x1 = 0.0005403 | – | 0.803
303.15 K, 101 kPa, x1 = 5.406e-05 | – | 0.772
303.15 K, 101 kPa, x1 = 0.0001081 | – | 0.772
303.15 K, 101 kPa, x1 = 0.0001622 | – | 0.774
303.15 K, 101 kPa, x1 = 0.0002162 | – | 0.775
303.15 K, 101 kPa, x1 = 0.0002702 | – | 0.778
303.15 K, 101 kPa, x1 = 0.0003242 | – | 0.78
303.15 K, 101 kPa, x1 = 0.0003783 | – | 0.785
303.15 K, 101 kPa, x1 = 0.0004323 | – | 0.786
303.15 K, 101 kPa, x1 = 0.0004863 | – | 0.799
303.15 K, 101 kPa, x1 = 0.0005403 | – | 0.802
308 K, 101 kPa, x1 = 0.0001513 | 0.078 | –
308 K, 101 kPa, x1 = 0.0001694 | 0.085 | –
308 K, 101 kPa, x1 = 0.0001892 | 0.094 | –
308 K, 101 kPa, x1 = 0.0002486 | 0.121 | –
308 K, 101 kPa, x1 = 0.0002774 | 0.135 | –
308 K, 101 kPa, x1 = 0.0003945 | 0.155 | –
308.15 K, 100 kPa, x1 = 5.406e-05 | – | 0.696
308.15 K, 100 kPa, x1 = 0.0001081 | – | 0.697
308.15 K, 100 kPa, x1 = 0.0001622 | – | 0.698
308.15 K, 100 kPa, x1 = 0.0002162 | – | 0.699
308.15 K, 100 kPa, x1 = 0.0002702 | – | 0.701
308.15 K, 100 kPa, x1 = 0.0003242 | – | 0.705
308.15 K, 100 kPa, x1 = 0.0003783 | – | 0.708
308.15 K, 100 kPa, x1 = 0.0004323 | – | 0.711
308.15 K, 100 kPa, x1 = 0.0004863 | – | 0.715
308.15 K, 100 kPa, x1 = 0.0005403 | – | 0.716
308.15 K, 101 kPa, x1 = 5.406e-05 | – | 0.696
308.15 K, 101 kPa, x1 = 0.0001081 | – | 0.697
308.15 K, 101 kPa, x1 = 0.0001622 | – | 0.698
308.15 K, 101 kPa, x1 = 0.0002162 | – | 0.699
308.15 K, 101 kPa, x1 = 0.0002702 | – | 0.701
308.15 K, 101 kPa, x1 = 0.0003242 | – | 0.705
308.15 K, 101 kPa, x1 = 0.0003783 | – | 0.709
308.15 K, 101 kPa, x1 = 0.0004323 | – | 0.711
308.15 K, 101 kPa, x1 = 0.0004863 | – | 0.714
308.15 K, 101 kPa, x1 = 0.0005403 | – | 0.716
313.15 K, 100 kPa, x1 = 5.406e-05 | – | 0.611
313.15 K, 100 kPa, x1 = 0.0001081 | – | 0.612
313.15 K, 100 kPa, x1 = 0.0001622 | – | 0.614
313.15 K, 100 kPa, x1 = 0.0002162 | – | 0.617
313.15 K, 100 kPa, x1 = 0.0002702 | – | 0.617
313.15 K, 100 kPa, x1 = 0.0003242 | – | 0.62
313.15 K, 100 kPa, x1 = 0.0003783 | – | 0.624
313.15 K, 100 kPa, x1 = 0.0004323 | – | 0.626
313.15 K, 100 kPa, x1 = 0.0004863 | – | 0.628
313.15 K, 100 kPa, x1 = 0.0005403 | – | 0.63
318 K, 101 kPa, x1 = 0.0001513 | 0.08 | –
318 K, 101 kPa, x1 = 0.0001748 | 0.09 | –
318 K, 101 kPa, x1 = 0.0001964 | 0.101 | –
318 K, 101 kPa, x1 = 0.0002252 | 0.113 | –
318 K, 101 kPa, x1 = 0.0002486 | 0.125 | –
318 K, 101 kPa, x1 = 0.000317 | 0.152 | –
318 K, 101 kPa, x1 = 0.0003369 | 0.157 | –
318 K, 101 kPa, x1 = 0.0003945 | 0.165 | –
318 K, 101 kPa, x1 = 0.0004305 | 0.169 | –
318.15 K, 100 kPa, x1 = 5.406e-05 | – | 0.582
318.15 K, 100 kPa, x1 = 0.0001081 | – | 0.584
318.15 K, 100 kPa, x1 = 0.0001622 | – | 0.585
318.15 K, 100 kPa, x1 = 0.0002162 | – | 0.587
318.15 K, 100 kPa, x1 = 0.0002702 | – | 0.588
318.15 K, 100 kPa, x1 = 0.0003242 | – | 0.589
318.15 K, 100 kPa, x1 = 0.0003783 | – | 0.59
318.15 K, 100 kPa, x1 = 0.0004323 | – | 0.591
318.15 K, 100 kPa, x1 = 0.0004863 | – | 0.592
318.15 K, 100 kPa, x1 = 0.0005403 | – | 0.593
